Tests used:
Assay type in all cases: in vivo
[1] = test system: Myzus persicae; test: Myzus persicae test (spray treatment of infested cabbage leaves); details: single active compound; for Kill in % after 6d: 0.8 g/ha; for Kill in % after 1d: 4 g/ha
Protocol: (§1) Solvents: 78 parts by weight of acetone • • 1.5 parts by weight of dimethylformamide
(§2) Emulsifier: 0.5 part by weight of alkylaryl polyglycol ether
(§3) To produce a suitable preparation of active compound, 1 part by weight of active compound is mixed with the stated amount of solvent and emulsifier, and the concentrate is diluted with emulsifier-containing water to the desired concentration.
Cabbage leaves (Brassica oleracea) which are heavily infested by the green peach aphid (Myzus persicae) are treated by spraying with the active compound preparation of the desired concentration.
After the desired period of time, the kill in % is determined. 100% means that all of the aphids have been killed; 0% means that none of the aphids have been killed. The kill rates determined are entered into Colby's formula (see above).

[2] = test system: Phaedon cochleariae larvae; test: Phaedon cochleariae larvae test (sprayed cabbage leaves); details: single active compound
Protocol: Phaedon cochleariae Larvae Test
as §1, §2, §3
Cabbage leaves (Brassica oleracea) are treated by spraying with the active ingredient formulation of the desired concentration and populated with larvae of the mustard beetle (Phaedon cochleariae) while the leaves are still moist.
After the desired period of time, the kill in % is determined. 100% means that all beetle larvae have been killed; 0% means that none of the beetle larvae have been killed. The kill rates determined are entered into Colby's formula (see above).

[3] = test system: Spodoptera frugiperda; test: Spodoptera frugiperda test (sprayed cabbage leaves); details: 100 g/ha, single active compound
Protocol: Spodoptera frugiperda Test
as §1, §2, §3
Cabbage leaves (Brassica oleracea) are treated by being sprayed with the preparation of active compound of the desired concentration and are populated with larvae of the armyworm (Spodoptera frugiperda) while the leaves are still moist.
After the desired period of time, the kill in % is determined. 100% means that all caterpillars have been killed; 0% means that none of the caterpillars have been killed. The kill rates determined are entered into Colby's formula (see above).

[4] = test system: Tetranychus urticae; test: Tetranychus urticae test (OP-resistant/spray treatment of bean leaf discs); details: single active compound
Protocol: Tetranychus urticae Test (OP-Resistant/Spray Treatment)
as §1, §2, §3
Discs of bean leaves (Phaseolus vulgaris) which are infested by all stages of the greenhouse red spider mite (Tetranychus urticae) are sprayed with the active compound preparation of the desired concentration.
After the desired period of time, the effect in % is determined. 100% means that all of the spider mites have been killed; 0% means that none of the spider mites have been killed.

| Compound | Kill in % after 6d [1] | Kill in % after 1d [1] | Kill in % after 2d ([2]; 100 g/ha) | Kill in % after 6d [3] | Kill in % after 2d ([4]; 4 g/ha) | Kill in % after 6d ([4]; 4 g/ha) | Kill in % after 2d ([2]; 20 g/ha) | Kill in % after 2d ([4]; 20 g/ha) | Kill in % after 6d ([2]; 20 g/ha) |
| --- | --- | --- | --- | --- | --- | --- | --- | --- | --- |
| O=C1C=C(N(CCF)Cc2ccc(Cl)nc2)CO1 [compound (I-4), 4-{[(6-chloropyrid-3-yl)methyl](2-fluoroethyl)amino}furan-2(5H)-one] | 0% | 20% | 33% | 0% | 0% | 0% |  |  |  |
| O=C1C=C(N(Cc2ccc(Cl)nc2)CC(F)F)CO1 [compound (I-5), 4-{[(6-chloropyrid-3-yl)methyl](2,2-difluoroethyl)amino}furan-2(5H)-one] | 30% |  |  |  | 0% | 0% | 0% | 0% |  |
| CN(Cc1cnc(Cl)c(F)c1)C1=CC(=O)OC1 [compound (I-6), 4-{[(6-chloro-5-fluoropyrid-3-yl)methyl](methyl)amino}furan-2(5H)-one] |  |  |  |  | 0% | 0% |  |  | 0% |
| CCC(C)(C)C(=O)OC1=C(c2ccc(Cl)cc2Cl)C(=O)OC12CCCCC2 [spirodiclofen, reference compound] |  | 0% |  |  |  |  |  |  |  |
| Cc1cc(C)c(C2=C(OC(=O)CC(C)(C)C)C3(CCCC3)OC2=O)c(C)c1 [spiromesifen, reference compound] |  | 0% |  |  | 20% | 70% |  |  |  |
| spirotetramat [reference compound] | 20% |  | 50% | 0% | 20% |  | 0% | 70% | 0% |

Reference: patent publication US20120094829A1, “Active Compound Combinations Having Insecticidal and Acaricidal Properties” (BAYER CROPSCIENCE AG, priority 2009, published 2012)
